From patent publication US20240059703A1 (AMGEN INC., priority 2021, published 2024) come the findings set out here.

Chain of KRAS G12C (P01116 other isoform, or with tags, fused parts or gaps G12C/C118A): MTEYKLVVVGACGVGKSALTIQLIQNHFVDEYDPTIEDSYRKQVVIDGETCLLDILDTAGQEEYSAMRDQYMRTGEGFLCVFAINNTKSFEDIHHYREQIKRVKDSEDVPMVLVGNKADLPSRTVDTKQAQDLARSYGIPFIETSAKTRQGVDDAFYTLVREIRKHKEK

One test deals with KRAS G12C (Homo sapiens (Human), UniProt P01116, C118A/G12C). The experiment in a line: 2 h coupled exchange assay. In kind it is biochemical. The settings on record: Avg 2 h Coupled exchange IC50, 2 h compound pre-incubation. The method, then:
The term “2 h coupled exchange assay” or “20 h coupled exchange assay” as used herein refers to the assay described in the Section entitled “BIOLOGICAL EVALUATION.”
As for `C=CC(=O)N1CC2(CCN(c3nc4c(c(-c5cccc6cc[nH]c56)c3C#N)C[C@H]3C[C@@H]4C3(C)C)C2)C1` [Example 14-22, (1R,9R)-6-(1H-indol-7-yl)-10,10-dimethyl-4-(2-(2-propenoyl)-2,6-diazaspiro[3.4]octan-6-yl)-3-azatricyclo[7.1.1.0^2,7]undeca-2,4,6-triene-5-carbonitrile], half-maximal inhibition (IC50) was put at 606 nM. Same read-out and setting: in the case of `C=CC(=O)N1CC2(CCN(c3nc4c(c(-c5cccc6c5cnn6C)c3C#N)C[C@H]3C[C@@H]4C3(C)C)C2)C1` [Example 14-24, (1R,9R)-10,10-dimethyl-6-(1-methyl-1H-indazol-4-yl)-4-(2-(2-propenoyl)-2,6-diazaspiro[3.4]octan-6-yl)-3-azatricyclo[7.1.1.0^2,7]undeca-2,4,6-triene-5-carbonitrile] it was 506 nM. The compound `C=CC(=O)N1CC2(CCN(c3nc4c(c(-c5ccc(F)c6sc(N)nc56)c3C)COC(C)(C)C4)C2)C1` [Example 14-27, 1-(6-(4-(2-amino-7-fluoro-1,3-benzothiazol-4-yl)-3,7,7-trimethyl-7,8-dihydro-5H-pyrano[4,3-b]pyridin-2-yl)-2,6-diazaspiro[3.4]octan-2-yl)-2-propen-1-one] returned an IC50 of 164 nM. Same read-out and setting: in the case of `C=CC(=O)N1CC2(CCN(c3nc4c(c(-c5cc(O)ccc5C)c3C)COC(C)(C)C4)C2)C1` [Example 14-30, 1-(6-(4-(5-hydroxy-2-methylphenyl)-3,7,7-trimethyl-7,8-dihydro-5H-pyrano[4,3-b]pyridin-2-yl)-2,6-diazaspiro[3.4]octan-2-yl)-2-propen-1-one] it was 215 nM; in that of `[2H]C([2H])([2H])n1ncc2ccc(C)c(-c3c(C)c(N4CCC5(CN(C(=O)C=C)C5)C4)nc4c3COC(C)(C)C4)c21` [Example 14-36, 1-(6-(3,7,7-trimethyl-4-(6-methyl-1-(^2H3)methyl-1H-indazol-7-yl)-7,8-dihydro-5H-pyrano[4,3-b]pyridin-2-yl)-2,6-diazaspiro[3.4]octan-2-yl)-2-propen-1-one], 226 nM.

The compound `C=CC(=O)N1CC2(CCN(c3nc4c(c(-c5c(C)ccc6cnn(C)c56)c3C)COC(C)(C)C4)C2)C1` [Example 14-37, 1-(6-(4-(1,6-dimethyl-1H-indazol-7-yl)-3,7,7-trimethyl-7,8-dihydro-5H-pyrano[4,3-b]pyridin-2-yl)-2,6-diazaspiro[3.4]octan-2-yl)-2-propen-1-one] registered an IC50 of 478 nM. This IC50 lies about 2.1-fold higher than the previous one. Same read-out and setting: with `C=CC(=O)N1CC2(CCN(c3nc4c(c(-c5ccc(F)c(O)c5)c3C#N)C[C@H]3C[C@@H]4C3(C)C)C2)C1` [Example 14-49, (1R,9R)-6-(4-fluoro-3-hydroxyphenyl)-10,10-dimethyl-4-(2-(2-propenoyl)-2,6-diazaspiro[3.4]octan-6-yl)-3-azatricyclo[7.1.1.0^2,7]undeca-2,4,6-triene-5-carbonitrile] the figure was 776 nM; with `C=CC(=O)N1CC2(CCN(c3nc4c(c(-c5cc(O)ccc5C)c3F)COC(C)(C)C4)C2)C1` [Example 14-53, 1-(6-(3-fluoro-4-(5-hydroxy-2-methylphenyl)-7,7-dimethyl-7,8-dihydro-5H-pyrano[4,3-b]pyridin-2-yl)-2,6-diazaspiro[3.4]octan-2-yl)-2-propen-1-one], 360 nM. The same measure, in the same setting: in the case of `C=CC(=O)N1CC2(CCN(c3nc4c(c(-c5c(C)ccc6cn[nH]c56)c3F)COC(C)(C)C4)C2)C1` [Example 14-54, 1-(6-(3-fluoro-7,7-dimethyl-4-(6-methyl-1H-indazol-7-yl)-7,8-dihydro-5H-pyrano[4,3-b]pyridin-2-yl)-2,6-diazaspiro[3.4]octan-2-yl)-2-propen-1-one] it was 349 nM; in that of `C=CC(=O)N1CC2(CCN(c3nc4c(c(-c5c(C)c(Cl)cc6cnn(C)c56)c3F)COC(C)(C)C4)C2)C1` [Example 14-55, 1-(6-(4-(5-chloro-1,6-dimethyl-1H-indazol-7-yl)-3-fluoro-7,7-dimethyl-7,8-dihydro-5H-pyrano[4,3-b]pyridin-2-yl)-2,6-diazaspiro[3.4]octan-2-yl)-2-propen-1-one], 209 nM; in that of `C=CC(=O)N1CC2(CCN(c3nc4c(c(-c5cccc6cc(O)ccc56)c3F)COC(C)(C)C4)C2)C1` [Example 14-65, 1-(6-(3-fluoro-4-(6-hydroxy-1-naphthalenyl)-7,7-dimethyl-7,8-dihydro-5H-pyrano[4,3-b]pyridin-2-yl)-2,6-diazaspiro[3.4]octan-2-yl)-2-propen-1-one], 367 nM. Take `C=CC(=O)N1CC2(CCN(c3nc4c(c(-c5c(C)ccc6cnn(C)c56)c3F)COC(C)(C)C4)C2)C1` [Example 14-71, 1-(6-(4-(1,6-dimethyl-1H-indazol-7-yl)-3-fluoro-7,7-dimethyl-7,8-dihydro-5H-pyrano[4,3-b]pyridin-2-yl)-2,6-diazaspiro[3.4]octan-2-yl)-2-propen-1-one]: the IC50 worked out at 781 nM. On the same count and under the same terms, with `C=CC(=O)N1CC2(CCN(c3nc4c(c(-c5c(C)ccc6cnn(C(F)F)c56)c3C#N)COC(C)(C)C4)C2)C1` [Example 14-83, 4-(1-(difluoromethyl)-6-methyl-1H-indazol-7-yl)-7,7-dimethyl-2-(2-(2-propenoyl)-2,6-diazaspiro[3.4]octan-6-yl)-7,8-dihydro-5H-pyrano[4,3-b]pyridine-3-carbonitrile] the figure was 432 nM; with `C=CC(=O)N1CC2(CCN(c3nc4c(c(-c5c(C)c(Cl)cc6cn[nH]c56)c3F)COC(C)(C)C4)C2)C1` [Example 14-85], 56 nM; with `C=CC(=O)N1CC2(CCN(c3nc4ccccc4c(-c4c(C)c(Cl)cc5cnn(C)c45)c3C#N)C2)C1` [Example 14-90, 4-(5-chloro-1,6-dimethyl-1H-indazol-7-yl)-2-(2-(2-propenoyl)-2,6-diazaspiro[3.4]octan-6-yl)-3-quinolinecarbonitrile], 148 nM. On the same count and under the same terms, in the case of `C=CC(=O)N1CC2(CCN(c3nc4c(c(-c5ccc(F)c6sc(N)c(C#N)c56)c3C)COC(C)(C)C4)C2)C1` [Example 14-106, 2-amino-7-fluoro-4-(3,7,7-trimethyl-2-(2-(2-propenoyl)-2,6-diazaspiro[3.4]octan-6-yl)-7,8-dihydro-5H-pyrano[4,3-b]pyridin-4-yl)-1-benzothiophene-3-carbonitrile] it was 46 nM. The same measure, in the same setting: with `C=CC(=O)N1CC2(CCN(c3nc4cc(-c5scnc5C)ccc4c(-c4ccccc4Cl)c3C)C2)C1` [Example 15-2, 1-(6-(4-(2-chlorophenyl)-3-methyl-7-(4-methyl-1,3-thiazol-5-yl)-2-quinolinyl)-2,6-diazaspiro[3.4]octan-2-yl)-2-propen-1-one] the figure was 478 nM; with `C=CC(=O)N1CC2(CCN(c3nc4cc(-n5ccnc5C)ccc4c(-c4ccccc4Cl)c3C)C2)C1` [Example 15-4, 1-(6-(4-(2-chlorophenyl)-3-methyl-7-(2-methyl-1H-imidazol-1-yl)-2-quinolinyl)-2,6-diazaspiro[3.4]octan-2-yl)-2-propen-1-one], 280 nM.

The same test, now with this note: Avg 2 h Coupled exchange IC50, 2 h compound pre-incubation, SOS-mediated nucleotide exchange.
In the case of `C=CC(=O)N1CC2(CCN(c3nc4c(c(-c5cnccc5C)c3C#N)C[C@H]3C[C@@H]4C3(C)C)C2)C1` [Example 13-109, (1R,9R)-10,10-dimethyl-6-(4-methyl-3-pyridinyl)-4-(2-(2-propenoyl)-2,6-diazaspiro[3.4]octan-6-yl)-3-azatricyclo[7.1.1.0^2,7]undeca-2,4,6-triene-5-carbonitrile], the IC50 came to 1110 nM.

Consider `C=CC(=O)N1CC2(CCN(c3nc4c(c(-c5c(C)ccc6cnn(C)c56)c3C#N)COC(C3CC3)C4)C2)C1` [Example 13-111, (7R)-7-cyclopropyl-4-(1,6-dimethyl-1H-indazol-7-yl)-2-(2-(2-propenoyl)-2,6-diazaspiro[3.4]octan-6-yl)-7,8-dihydro-5H-pyrano[4,3-b]pyridine-3-carbonitrile|(7S)-7-cyclopropyl-4-(1,6-dimethyl-1H-indazol-7-yl)-2-(2-(2-propenoyl)-2,6-diazaspiro[3.4]octan-6-yl)-7,8-dihydro-5H-pyrano[4,3-b]pyridine-3-carbonitrile], for which the midpoint of inhibition, the IC50, lay at 294 nM. On the same count and under the same terms, with `C=CC(=O)N1CC2(CCN(c3nc4c(c(-c5c(C)ccc6cnn(C)c56)c3C#N)[C@H]3C[C@@H](C4)C3)C2)C1` [Example 13-131, (1S,9S)-3-(1,6-dimethyl-1H-indazol-7-yl)-5-(2-(2-propenoyl)-2,6-diazaspiro[3.4]octan-6-yl)-6-azatricyclo[7.1.1.0^2,7]undeca-2,4,6-triene-4-carbonitrile] the figure was 101 nM; with `C=CC(=O)N1CC2(CCN(c3nc4c(c(-c5c(C)ccc6cnn(C)c56)c3C#N)CNC(C)(C)C4)C2)C1` [Example 13-138, 4-(1,6-dimethyl-1H-indazol-7-yl)-7,7-dimethyl-2-(2-(2-propenoyl)-2,6-diazaspiro[3.4]octan-6-yl)-5,6,7,8-tetrahydro-1,6-naphthyridine-3-carbonitrile], 641 nM. Still for that read-out and setting: with `C=CC(=O)N1CC2(CCN(c3nc4c(c(-c5c(C)ccc6cnn(C)c56)c3C#N)CO[C@H](C)C4)C2)C1` [Example 13-141, (7)-2-(2-acryloyl-2,6-diazaspiro[3.4]octan-6-yl)-4-(1,6-dimethyl-1H-indazol-7-yl)-7-methyl-7,8-dihydro-5H-pyrano[4,3-b]pyridine-3-carbonitrile] the figure was 842 nM; with `C=CC(=O)N1CC2(CCN(c3nc4c(c(-c5c(C)ccc6cnn(C)c56)c3C#N)CO[C@@H](C)C4)C2)C1` [Example 13-142, (7)-2-(2-acryloyl-2,6-diazaspiro[3.4]octan-6-yl)-4-(1,6-dimethyl-1H-indazol-7-yl)-7-methyl-7,8-dihydro-5H-pyrano[4,3-b]pyridine-3-carbonitrile], 620 nM; with `C=CC(=O)N1CC2(CCN(c3nc4ccccc4c(-c4c(C)ccc5[nH]nc(Cl)c45)c3C#N)C2)C1` [Example 14-3, 4-(3-chloro-5-methyl-1H-indazol-4-yl)-2-(2-(2-propenoyl)-2,6-diazaspiro[3.4]octan-6-yl)-3-quinolinecarbonitrile], 588 nM.

By IC50 is commonly meant the point on the concentration scale where inhibition reaches its midpoint.
